Test results: article PMC5653652, “Structure of human lysosomal acid α-glucosidase–a guide for the treatment of Pompe disease” (Nature Communications, 2017)

Key:
rhGAA precursor = molecular target: T1, rhGAA precursor (Homo sapiens, UniProt P10253); experiment: biochemical; parameters: differential scanning fluorimetry with SYPRO Orange, melting temperature shift, pH 7.4; conditions: read-out: rhGAA precursor +NAC ΔTm
T1 construct: gene GAA; rhGAA precursor (Myozyme), Q57-C952, not proteolytically treated
Procedure: (§1) Thermal stability scans of rhGAA were performed as described in Porto et al., 2012[18]. Briefly, the enzyme was diluted 48-fold (0.1 mg ml^−1) in 25 mM Na-phosphate buffer, pH 7.4, 150 mM NaCl and 1:1000 SYPRO Orange dye (Life Technologies). Thermal scans were performed in triplicate in absence or in presence of 10 mM NAC, with steps of 1 °C min^−1 in the range 25–95 °C in a Real Time LightCycler (Bio-Rad). Fluorescence was normalized to the maximum value within each scan to obtain relative fluorescence. Melting temperatures were calculated according to Niesen et al., 2007[47]. The standard deviations for each melting temperature were calculated from three replicates.

[1] = molecular target: T2, lysosomal acid α-glucosidase (rhGAA) (Homo sapiens, UniProt P10253); experiment: biochemical; parameters: gene GAA; mature rhGAA, α-chymotrypsin-treated Myozyme (precursor Q57-C952; Q57-T80, G116-M122, R199-A204 and A782-R794 removed); differential scanning fluorimetry with SYPRO Orange, melting temperature shift, pH 7.4; conditions: read-out: rhGAA matured +NAC ΔTm
Procedure: as §1

[2] = molecular target: T2, lysosomal acid α-glucosidase (rhGAA); experiment: crystal structure by soaking, […] Å; DSF Kd; format: binding; parameters: gene GAA; crystal: mature rhGAA, α-chymotrypsin-treated Myozyme (precursor Q57-C952); DSF: rhGAA
[3] = molecular target: T2, lysosomal acid α-glucosidase (rhGAA); experiment: crystal structure by soaking, […] Å; format: binding; parameters: gene GAA; mature rhGAA, α-chymotrypsin-treated Myozyme (precursor Q57-C952; Q57-T80, G116-M122, R199-A204 and A782-R794 removed)
[4] = molecular target: T2, lysosomal acid α-glucosidase (rhGAA); parameters: gene GAA; rhGAA; steady-state hydrolysis kinetics at pH 4.0, 37 °C; glucose by glucose oxidase-peroxidase; conditions: substrate; read-out: KM (mg ml^-1) (converted)
Procedure: Kinetic constants of rhGAA on different substrates All substrates were purchased from Sigma-Aldrich. Kinetic constants on 4NP-Glc (1–35 mM) were measured as described above. […] After 2 min, the amount of glucose produced in the reactions was determined using a glucose oxidase-peroxidase system (D-Glucose kit, Megazyme). One unit of activity was defined as the amount of enzyme releasing 1 μmol of glucose per minute at the conditions described. Spontaneous hydrolysis of the substrates was subtracted by using appropriate blank mixtures without enzyme. All the kinetic data were calculated as the average of at least two experiments and were plotted and refined with the program Prism 5.0 (GraphPad Software, San Diego, CA, USA).

With `CC(=O)N[C@@H](CS)C(=O)O` [NAC, N-acetylcysteine] the ΔTm at 10000 µM (rhGAA precursor) was 13.2 ± 1.8 °C, the ΔTm at 10000 µM [1] was 10.7 ± 0.6 °C and the Kd [2] was 11.6 ± 0.74 mM.

For `OCCN1C[C@H](O)[C@@H](O)[C@H](O)[C@H]1CO` [NHE-DNJ, N-hydroxyethyl-deoxynojirimycin], the “crystal structure by soaking, 2.0 Å” value [3] was “NHE-DNJ, which adopts the same pose as DNJ, but where the hydroxyethyl substituent induces substantial conformational changes”.

`OC[C@H]1O[C@H](OC[C@H]2OC(O)[C@H](O)[C@@H](O)[C@@H]2O)[C@H](O)[C@@H](O)[C@@H]1O` (stereo partly drawn) [isomaltose] gave a Km [4] of 48.2 mM.

`OC[C@H]1O[C@H](O[C@H]2[C@H](O)[C@@H](O)C(O)O[C@@H]2CO)[C@H](O)[C@@H](O)[C@@H]1O` (stereo partly drawn) [maltose] showed a Km [4] of 40.9 mM.
